# Target: Human immunodeficiency virus type 1 protease (Human immunodeficiency virus 1, UniProt Q72874)
# Experiment: Inhibition of human immunodeficiency virus type 1 (HIV-1) protease
row,Structure (SMILES),IC50 [µM]
1,CC(C)[C@H](NC(=O)OCc1ccccc1)C(=O)N[C@@H](Cc1ccccc1)[C@]1(O)CCN([C@@H](Cc2ccccc2)C(=O)N[C@H]2c3ccccc3C[C@H]2O)C1,0.22
2,CC(C)(C)NC(=O)[C@H](CC1CCCCC1)N1CC[C@@](O)([C@H](Cc2ccccc2)NC(=O)OC(C)(C)C)C1,37
3,CC(C)(C)OC(=O)N[C@@H](Cc1ccccc1)[C@]1(O)CCCN([C@@H](Cc2ccccc2)C(=O)N[C@H]2c3ccccc3C[C@H]2O)C1,> 100
4,CC(C)C[C@@H](C(=O)NC(C)(C)C)N1CCC[C@@](O)([C@H](Cc2ccccc2)NC(=O)OC(C)(C)C)C1,> 100
5,CC(C)(C)NC(=O)[C@H](CC1CCCCC1)N1CCC[C@](O)([C@H](Cc2ccccc2)NC(=O)OC(C)(C)C)C1,> 100
6,CC(C)(C)OC(=O)N[C@@H](Cc1ccccc1)C1(O)CCN([C@@H](Cc2ccccc2)C(=O)N[C@H]2c3ccccc3C[C@H]2O)CC1,1.46
7,CC(C)(C)OC(=O)N[C@@H](Cc1ccccc1)[C@@]1(O)CCN([C@@H](Cc2ccccc2)C(=O)N[C@H]2c3ccccc3C[C@H]2O)C1,6
8,CC(C)(C)OC(=O)N[C@@H](Cc1ccccc1)[C@]1(O)CCN([C@@H](Cc2ccccc2)C(=O)N[C@H]2c3ccccc3C[C@H]2O)C1,0.6
9,CC(C)C[C@@H](C(=O)NC(C)(C)C)N1CCC(O)([C@H](Cc2ccccc2)NC(=O)[C@@H](NC(=O)OCc2ccccc2)C(C)C)CC1,26.7
10,O=C(N[C@@H](Cc1ccccc1)C1(O)CCN([C@@H](Cc2ccccc2)C(=O)N[C@H]2c3ccccc3C[C@H]2O)CC1)O[C@H]1CCOC1,29.7
11,CC(C)[C@H](NC(=O)OCc1ccccc1)C(=O)N[C@@H](Cc1ccccc1)C1(O)CCN(CCc2ccccc2)CC1,38.7
12,CC(C)(C)NC(=O)[C@H](CC1CCCCC1)N1CCC(O)([C@H](Cc2ccccc2)NC(=O)OC(C)(C)C)CC1,> 100

# Reference: ChEMBL document CHEMBL1127971, “Novel conformationally constrained HIV-1 protease inhibitors: rational design, enzyme inhibition, and X-ray structure of an enzyme-inhibtor complex” (Bioorg Med Chem Lett, 1994)
